# Experimental data: patent US20230167058A1, “GPX4 COMPOUNDS AND COMPOSITIONS AND METHODS OF TREATMENT USING SAME” (THE TRUSTEES OF COLUMBIA UNIVERSITY IN THE CITY OF NEW YORK, priority 2020, published 2023)
# Tests used:
# GPX4^U46C = molecular target: T1, GPX4^U46C (Homo sapiens, UniProt P36969, U73C); assay: Thermal shift assay (screen of LOC library); format: binding
# T1 construct: His6 (N, cleaved yes); made in house; host or cells: E. coli BL21-Gold (DE3), M9 minimal medium with 15NH4Cl
# T1 sequence (P36969 33-197 U73C): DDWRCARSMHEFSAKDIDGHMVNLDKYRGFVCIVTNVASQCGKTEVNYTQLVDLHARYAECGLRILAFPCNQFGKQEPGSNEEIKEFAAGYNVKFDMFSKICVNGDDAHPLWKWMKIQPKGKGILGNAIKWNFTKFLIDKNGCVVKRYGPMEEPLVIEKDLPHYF
# Protocol: To fully utilize the versatility shown by the […] site to accommodate structurally diverse compounds, we applied thermal shift assay to screen 9,719 compounds in the Lead-Optimized-Compound (LOC) library for in vitro binders of GPX4^U46C, which would shift the melting temperature of GPX4^U46C (|ΔTm|>2° C., FIG. 12D) (Kaplan et al. 2015).
# Since the binding of small molecules may alter the thermostability of protein, we applied thermal shift assay to screen the LOC library, which determined binding of ligand from the change of the unfolding transition temperature (ΔTm) obtained in the presence of ligands relative to that obtained in the absence of ligands (Kaplan et al. 2015; Lo et al. 2004). For higher throughput purpose, we adapted the assay on 384-well PCR plate. With the assistance of Biomek Automated Liquid Handler (Beckman), 2 μl 10 mM stock solution (in 100% DMSO) of the each compound was transferred from 384-well library plates to 38 μl FPLC buffer (100 mM Tris pH 8.0, 300 mM NaCl, 3 mM TCEP) and mixed in each well of a 384-well mother plate. The compound solution was then dispensed, 12 μl per well, into three 384-well PCR plates. GPX4^U46C protein and Sypro orange were manually added to the plate, with the final concentrations of 5 μM and 5×, respectively, to make a volume of 20 μl per well right before thermal shift analysis of the specific plate. The thermal shift assay was performed on the ViiA 7 Real-Time PCR system (Thermo Fisher) with the thermal protocol: 25° for 15 s, Increase temp to 99° at a rate of 0.05°/sec, 99° for 15 sec. The fluorescence was recorded and analyzed by Protein Thermal Shift™ software. The mean |ΔTm| value for the biological triplicates were calculated and used for hit identification.
# [1] = system: GPX4 protein level in HT-1080 cells; assay: Western blot GPX4 degradation study in HT-1080; format: cell-based, human; details: 1 μM RSL3, 1 μM ML162, 10 μM FIN56, 10 h, with 100 μM α-tocopherol
# Outline: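 HT-1080 cells were co-treated 10 h with 100 μM α-tocopherol plus compound (RSL3 or ML162 at 1 μM; IKE or FIN56 at 10 μM) or vehicle. RIPA lysates were Western blotted for GPX4, with actin and GAPDH as loading references. Blots were quantified by infrared imaging.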
# cancer cells = details: cited from earlier work
Structure (SMILES),Thermal shift (GPX4^U46C; Table 1),|ΔTm| (GPX4^U46C; thermal shift screening top hit),degradation of endogenous GPX4 [1],potency to induce ferroptosis (cancer cells)
COc1cccc2[nH]c(C(=O)n3ccnc3)cc12 [LOC1886],positive,3 °C,,
"COC(=O)c1ccc([C@@H]2c3[nH]c4ccccc4c3C[C@@H](C(=O)OC)N2C(=O)CCl)cc1 [RSL3, (1S, 3R)-RSL3]",,,significantly promoted degradation of GPX4,nanomolar potencies
